{
  "source": "patent US8906826B2",
  "about": "“Herbicidal compositions comprising 4-amino-3-chloro-5-fluoro-6-(4-chloro-2-fluoro-3-methoxyphenyl) pyridine-2-carboxylic acid or a derivative thereof and imidazolinones” (Dow AgroSciences, LLC, priority 2012, dated 2014)",
  "key": {"[1]": {"tested_on": "SONAR", "assay": "Postemergence herbicidal activity in forage crops (Example IV)", "assay_type": "in vivo, Sonchus arvensis L.", "conditions": "after approximately 21 days", "method": "Seeds or root cuttings of the desired test plant species were planted in Sun Gro MetroMix® 306 planting mixture, which typically has a pH of about 6.0 to about 6.8 and an organic matter content of about 30 percent, in plastic pots with a surface area of 126.6 square centimeters (cm^2). When required to ensure good germination and healthy plants, a fungicide treatment and/or other chemical or physical treatment was applied. The plants were grown for 14-60 days in a greenhouse with an approximate 14 hour photoperiod which was maintained at about 28° C. during the day and about 24° C. during the night. Nutrients and water were added on a regular basis and supplemental lighting was provided with overhead metal halide 1000-Watt lamps as necessary. The plants were employed for testing when they reached the BBCH13 to BBCH23 leaf stage.\nTreatments consisted of the benzyl ester of 4-amino-3-chloro-5-fluoro-6-(4-chloro-2-fluoro-3-methoxy-phenyl)pyridine-2-carboxylic acid (Compound A), formulated as a SC (suspension concentrate), and a second herbicide alone and in combination.\nA measured aliquot of Compound A was placed in a 25 milliliter (mL) glass vial and diluted in a volume of 1.25% (v/v) Agri-Dex® crop oil concentrate to obtain stock solutions. Compound requirements are based upon a 12 mL application volume at a rate of 187 liters per hectare (L/ha). Spray solutions of the second cereal herbicide and experimental compound mixtures were prepared by adding the stock solutions to the appropriate amount of dilution solution to form 12 mL spray solution with active ingredients in two- and three-way combinations. Formulated compounds were applied to the plant material with an overhead Mandel track sprayer equipped with an 8002E nozzle calibrated to deliver 187 L/ha over an application area of 0.503 square meters (m^2) at a spray height of 18 inches (46 cm) above average plant canopy. Control plants were sprayed in the same manner with the solvent blank.\n(§1) The treated plants and control plants were placed in a greenhouse as described above and watered by sub-irrigation to prevent wash-off of the test compounds. After approximately 21 days, the condition of the test plants, as compared with that of the control plants, was determined visually and scored on a scale of 0 to 100 percent where 0 corresponds to no injury and 100 corresponds to complete kill.\nColby's equation was used to determine the herbicidal effects expected from the mixtures (Colby, S. R. 1967. Calculation of the synergistic and antagonistic response of herbicide combinations. Weeds 15:20-22.).\nThe following equation was used to calculate the expected activity of mixtures containing two active ingredients, A and B: Expected=A+B−(A×B/100)"}, "[2]": {"tested_on": "CIRAR", "assay": "Postemergence herbicidal activity in cereal crops, greenhouse (Example V)", "assay_type": "in vivo, Cirsium arvense (L.) Scop.", "method": "Seeds of the desired test plant species were planted in Sun Gro MetroMix® 306 planting mixture, which typically has a pH of 6.0 to 6.8 and an organic matter content of about 30 percent, in plastic pots with a surface area of 103.2 square centimeters (cm^2). When required to ensure good germination and healthy plants, a fungicide treatment and/or other chemical or physical treatment was applied. The plants were grown for 7-36 days in a greenhouse with an approximate 14 hour photoperiod which was maintained at about 18° C. during the day and about 17° C. during the night. Nutrients and water were added on a regular basis and supplemental lighting was provided with overhead metal halide 1000-Watt lamps as necessary. The plants were employed for testing when they reached the second or third true leaf stage.\nTreatments consisted of the benzyl ester of 4-amino-3-chloro-5-fluoro-6-(4-chloro-2-fluoro-3-methoxy-phenyl)pyridine-2-carboxylic acid (Compound A), formulated as an SC, a second cereal herbicide alone and then both in combination.\nOther herbicidal components were applied on an acid equivalent basis and include acetolactate synthase (ALS)-inhibiting herbicides (imidazolinone chemical class) imazamethabenz-methyl formulated as Assert®. Spray solutions of the second cereal herbicide and experimental compound mixtures were prepared by adding the stock solutions to the appropriate amount of dilution solution to form 12 mL spray solution with active ingredients in two- and three-way combinations. […]\nas §1, with “20-22” for “approximately 21”, “plants” for “plants,”, “kill. […]” for “kill.”"}},
  "data": [
    {"smiles": "Cc1cnc(C2=NC(C)(C(C)C)C(=O)N2)c(C(=O)O)c1.N", "note": "(racemic) [Imazapic ammonium, ammonium (±)-2-[4,5-dihydro-4-methyl-4-(1-methylethyl)-5-oxo-1H-imidazol-2-yl]-5-methyl-3-pyridinecarboxylic acid]", "values": [
      {"measurement": "SONAR Obs", "setting": "[1]; Imazapic ammonium 17.5 gae/ha", "result": 0, "unit": "%"}
    ]},
    {"smiles": "COc1c(Cl)ccc(-c2nc(C(=O)OCc3ccccc3)c(Cl)c(N)c2F)c1F", "note": "[Compound A Benzyl Ester, benzyl ester of 4-amino-3-chloro-5-fluoro-6-(4-chloro-2-fluoro-3-methoxy-phenyl)pyridine-2-carboxylic acid]", "values": [
      {"measurement": "Visual Weed Control (%) - 21 DAA CIRAR Obs", "setting": "[2]; Compound A Benzyl Ester 2 gae/ha", "result": 10, "unit": "%"},
      {"measurement": "Visual Weed Control (%) - 21 DAA CIRAR Obs", "setting": "[2]; Compound A Benzyl Ester 4 gae/ha", "result": 20, "unit": "%"},
      {"measurement": "SONAR Obs", "setting": "[1]; Compound A Benzyl Ester 4.4 gae/ha", "result": 65, "unit": "%"},
      {"measurement": "SONAR Obs", "setting": "[1]; Compound A Benzyl Ester 8.8 gae/ha", "result": 100, "unit": "%"},
      {"measurement": "SONAR Obs", "setting": "[1]; Compound A Benzyl Ester 17.5 gae/ha", "result": 95, "unit": "%"}
    ]}
  ]
}
